Assays:
Experiment in all cases: relative viability (nuclei count vs DMSO), 5 days (fraction); higher = more cells survive
[1] = compound: CC1=CC(=NN1)NC2=CC(=NC(=N2)/C=C/C3=CC=CC=C3)N4CCN(CC4)C + O=C(c1cc(Cc2n[nH]c(=O)c3ccccc23)ccc1F)N1CCN(C(=O)C2CC2)CC1 [Olaparib] (partner 8 µM)
In short: (§1)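 For relative viability, nuclei counts in treated wells were divided by those in vehicle wells. Lung cancer cell lines had been pin-tool dosed in 1536-well plates the day after seeding and cultured for 5 days, then fixed and stained in one step (final 0.05% Triton X-100, 1% formaldehyde, 1 ug/ml Hoechst) and imaged at 4×. Doses were one drug alone or a fixed anchor-drug dose plus five library-drug doses (not always all listed) in √10 steps, and values are duplicate-plate medians.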

Bortezomib + Pictilisib = compound: CC(C)C[C@H](NC(=O)[C@H](Cc1ccccc1)NC(=O)c1cnccn1)B(O)O [Bortezomib] + CS(=O)(=O)N1CCN(Cc2cc3nc(-c4cccc5[nH]ncc45)nc(N4CCOCC4)c3s2)CC1 [Pictilisib] (partner 1 µM)
In short: as §1

Obatoclax + Olaparib = compound: COC1=CC(c2cc3ccccc3[nH]2)=N/C1=C\c1[nH]c(C)cc1C [Obatoclax] + O=C(c1cc(Cc2n[nH]c(=O)c3ccccc23)ccc1F)N1CCN(C(=O)C2CC2)CC1 [Olaparib] (partner 8 µM)
In short: as §1

[2] = compound: CC1=CC(=NN1)NC2=CC(=NC(=N2)/C=C/C3=CC=CC=C3)N4CCN(CC4)C + C[C@@H](Oc1cc(-c2cnn(C3CCNCC3)c2)cnc1N)c1c(Cl)ccc(F)c1Cl [Crizotinib] (partner 1 µM)
In short: as §1

## NCI-H650
[1]; first compound 0.08 µM
  relative viability: 0.376
[1]; first compound 0.253 µM
  relative viability: 0.431
[1]; first compound 0.8 µM
  relative viability: 0.416
[1]; first compound 2.53 µM
  relative viability: 0.344
[1]; first compound 8 µM
  relative viability: 0.136
Bortezomib + Pictilisib; first compound 0.000632 µM
  relative viability: 0.695
Bortezomib + Pictilisib; first compound 0.002 µM
  relative viability: 0.551
Bortezomib + Pictilisib; first compound 0.006325 µM
  relative viability: 0.328
Bortezomib + Pictilisib; first compound 0.02 µM
  relative viability: 0.205
Obatoclax + Olaparib; first compound 0.01 µM
  relative viability: 0.385
Obatoclax + Olaparib; first compound 0.03162 µM
  relative viability: 0.388
Obatoclax + Olaparib; first compound 0.3162 µM
  relative viability: 0.264
Obatoclax + Olaparib; first compound 1 µM
  relative viability: 0.18
[2]; first compound 0.08 µM
  relative viability: 0.916
[2]; first compound 0.253 µM
  relative viability: 0.739
[2]; first compound 0.8 µM
  relative viability: 0.515
[2]; first compound 2.53 µM
  relative viability: 0.358
[2]; first compound 8 µM
  relative viability: 0.188

Reference: the supplement of paper PMC10307832
